According to ChEMBL document CHEMBL3045358, “Synthesis of kojic acid-derived copper-chelating apoptosis inducing agents” (2013):
Calls of active or inactive are those of the source. The rule behind the calls is not given here.

Columns and labels:
HeLa [1] = assay: Antiproliferative activity against Homo sapiens (human) HeLa cells assessed as growth inhibition at 25 uM after 48 hr by MTT assay in presence of 50 uM CuCl2; format: functional
HeLa [2] = assay: Antiproliferative activity against Homo sapiens (human) HeLa cells assessed as growth inhibition at 25 uM after 48 hr by MTT assay; format: functional, cell-based
HeLa [3] = assay: Induction of cell cycle arrest in Homo sapiens (human) HeLa cells assessed as accumulation of cells at sub-G1 phase at 25 uM after 24 hr by propidium iodide staining based flow cytometry in presence of 50 uM CuCl2 (reference value: 3.22%); format: functional
HeLa [4] = assay: Induction of cell cycle arrest in Homo sapiens (human) HeLa cells assessed as accumulation of cells at sub-G1 phase at 25 uM after 24 hr by propidium iodide staining based flow cytometry (reference value: 3.41%); format: functional
HeLa [5] = assay: Antiproliferative activity against Homo sapiens (human) HeLa cells assessed as growth inhibition after 48 hr by MTT assay; format: functional
HeLa [6] = assay: Antiproliferative activity against Homo sapiens (human) HeLa cells assessed as growth inhibition after 48 hr by MTT assay in presence of 50 uM CuCl2; format: functional
HeLa [7] = assay: Induction of cell cycle arrest in Homo sapiens (human) HeLa cells assessed as accumulation of cells at sub-G1 phase at 15 uM after 24 hr by propidium iodide staining based flow cytometry in presence of 50 uM CuCl2 (reference value: 3.22%); format: functional
HeLa [8] = assay: Induction of apoptosis in Homo sapiens (human) HeLa cells assessed as PARP cleavage at 15 uM after 24 hr by Western blot analysis in presence of 50 uM CuCl2; format: functional, cell-based
HeLa [9] = assay: Increase in ERK phosphorylation in Homo sapiens (human) HeLa cells at 15 uM after 24 hr by Western blot analysis in presence of 50 uM CuCl2; format: cell-based
[10] = molecular target: MAP kinase p38 (Homo sapiens) (UniProt O15264+Q15759+Q16539+P53778); assay: Increase in p38 MAPK phosphorylation in Homo sapiens (human) HeLa cells at 15 uM after 24 hr by Western blot analysis in presence of 50 uM CuCl2; format: cell-based
HeLa [11] = assay: Induction of cell cycle arrest in Homo sapiens (human) HeLa cells assessed as accumulation of cells at sub-G1 phase at 15 uM after 24 hr by propidium iodide staining based flow cytometry (reference value: 3.41%); format: functional
HeLa [12] = assay: Antiproliferative activity against Homo sapiens (human) HeLa cells assessed as growth inhibition at 75 uM after 48 hr by MTT assay; format: functional; conditions: read-out: GI
HeLa [13] = assay: Induction of apoptosis in Homo sapiens (human) HeLa cells assessed as decrease in 32 kDa procaspase-3 level at 15 uM after 24 hr by Western blot analysis in presence of 50 uM CuCl2; format: functional, cell-based
HeLa [14] = assay: Induction of cell cycle arrest in Homo sapiens (human) HeLa cells assessed as accumulation of cells at sub-G1 phase at 5 uM after 24 hr by propidium iodide staining based flow cytometry in presence of 50 uM CuCl2 (reference value: 3.22%); format: functional
HeLa [15] = assay: Induction of cell cycle arrest in Homo sapiens (human) HeLa cells assessed as accumulation of cells at sub-G1 phase at 5 uM after 24 hr by propidium iodide staining based flow cytometry (reference value: 3.41%); format: functional

O=c1cc(/C=C/c2ccc(O)c(O)c2)occ1O
growth inhibition (GI) (HeLa [1]): inactive
growth inhibition (GI) (HeLa [2]): inactive

O=c1cc(CO)occ1O [KOJIC ACID]
growth inhibition (GI) (HeLa [1]): inactive
growth inhibition (GI) (HeLa [2]): inactive
Activity (HeLa [3]): 3.57%
Activity (HeLa [4]): 2.16%

O=c1cc(CN2CCN(S(=O)(=O)c3ccccc3)CC2)occ1O
growth inhibition (GI) (HeLa [1]): 35%

O=c1cc(COc2cccc(O)c2)occ1O
growth inhibition (GI) (HeLa [1]): inactive
growth inhibition (GI) (HeLa [2]): inactive

O=c1cc(/C=C/c2ccccc2)occ1O
growth inhibition (GI) (HeLa [1]): 90%
growth inhibition (GI) (HeLa [2]): inactive
GI50 (HeLa [5]): 64.5 µM
GI50 (HeLa [6]): 11.9 µM

COc1ccc(COc2coc(/C=C/c3ccccc3)cc2=O)cc1
growth inhibition (GI) (HeLa [1]): inactive

O=c1cc(COc2cccc3cccnc23)occ1O
growth inhibition (GI) (HeLa [1]): 95%
growth inhibition (GI) (HeLa [2]): inactive
Activity (HeLa [7]): 48.56%
Activity (HeLa [8]): Active
Activity (HeLa [9]): Active
Activity [10]: Active
Activity (HeLa [11]): 5.85%
inhibition of growth at 75 µM (HeLa [12]): 15.2%
Activity (HeLa [13]): Active
GI50 (HeLa [6]): 7.1 µM
Activity (HeLa [14]): 11.58%
Activity (HeLa [15]): 5.09%
